Where a name gives a salt, the structure may show the parent alone.

The values that follow come from patent US8808751B2, “Methods for the preparation of biologically active compounds in nanoparticulate form” (Iceutica Pty Ltd., priority 2006, dated 2014).

One data set is described as follows: BET surface area. It counts as physicochemical. To be noted: for BET surface area: raloxifene forms, milled with NaCl and washed (commercial: as obtained).
A short description of data set [1]: Particle size from SEM/TEM images. The format is physicochemical. To be noted: for particle size (SEM/TEM): milled with NaCl, grinding compound removed by washing.
The nature of data set [2]: Particle size distribution (dynamic light scattering). It counts as physicochemical. The following applies: washed dispersion, larger aggregates removed by centrifugation. From the text: In a preferred form of the invention, about 90% of the particles have a particle size of less than about 500 nm. The particles distribution can be measured with dynamic light scattering of a dispersion of the particles with the aid of sonication, and after centrifugation at 500 rcf for 30 seconds to remove larger agglomerates from the dispersion. Other means to measure the particles size are for examples surface area measurements, and electron micrographs, which can be used to support the measured size distribution of the particles.
The size determined by SEM is in good agreement with the size distribution of the dispersion before drying by dynamic light scatter (DLS) (FIG. 10). Here the particles size was determined with a Malvern HPPS dynamic light scattering apparatus with a size distribution after number of 128±53 nm (number weighted) in intensity a second peak of 300 nm was detected. Prior to the measurement any larger aggregates or agglomerates were removed by 1 min centrifugation at 6000 g, and only the supernatant was analyzed.

A short description of data set [3]: Stability of drug on dry milling. The following applies: dry milled with NaCl for 180 minutes; attributed to degradation of the drug. The format is physicochemical. Here is the method: [drawing 3] was placed in a milling apparatus (a 70 cm^3 stainless steel ball mill container) with grinding compound in the form of 3.68 g of NaCl, thereby providing the mixture at 9.6 and 90.4 weight % respectively, corresponding to 15 and 85 volume %, with a total volume of 2 cm^3. Milling media comprising 40 g of 10 mm steel balls (10 pieces) were employed in the container. The milling apparatus was closed under house vacuum prior to milling. […] The mixture was dry milled for 15 minutes and 180 minutes, the composition resulting after milling for both times comprised olanzapine in nanoparticulate form dispersed in the grinding medium NaCl.
Milling times assayed included 15 and 180 minutes in two separate milling runs. Analysis of the melting point of the nanoparticles produced at 180 minute milling time period confirmed that the resulting composition was olanzapine, with a melting point in the range of 200° C.

The nature of data set [4]: Dissolution in simulated intestinal fluid. It counts as physicochemical. To be noted: simulated intestinal fluid (SIF), 60 mg in 1 L fluid, 90 minutes post addition. As for the experimental part: (§1) The dissolution properties of the particulate raloxifene hydrochloride were tested with a USP apparatus in simulated gastric conditions, and compared with commercial raloxifene hydrochloride. About 60 mg of particulate raloxifene hydrochloride and commercial raloxifene hydrochloride, respectively, were introduced into gelatin capsules. The dissolution properties were followed as a function of solution concentration versus time.
(§2) As tested prior to administration to the dogs, the particulate raloxifene hydrochloride had the following properties: >75% of the particles were in the range of 220-350 nm in size, with >90% in the range of […]. […] At 90 minutes post addition, approximately 15 mg/L of particulate raloxifene was detected versus 8 mg/L of comparison API for SGF; and 4.5 mg/L versus 0.75 mg/L for SIF.

Data set [5] is described as follows: Pharmacokinetics after oral capsule administration, crossover study. It counts as in vivo. To be noted: 12 beagle dogs. Here is the method:
This study involved the investigation of the pharmacokinetics of raloxifene hydrochloride following oral administration of two dosage formulations to 12 male and female beagle dogs. The two dosage forms investigated were 1) raloxifene hydrochloride particles, developed according to the method of the present invention, and 2) standard API. Both forms were administered as capsules prepared by the Pharmaceutics laboratory of TetraQ.
The study was designed as a crossover trial conducted in 6 male and 6 female healthy Beagle dogs. Raloxifene was administered as an oral dose with three male plus three female dogs each receiving one of the two preparations on each of two dosing occasions. Eleven plasma samples were collected from each animal in the 24 hour period following each dose and these were all available for determination of raloxifene concentration.
Plasma samples were transported to the TetraQ-ADME laboratories on dry ice and all were in an intact (frozen) condition upon arrival. The concentration of raloxifene in the plasma samples was determined by an LC-MS/MS assay developed and validated by TetraQ-ADME,
Pharmacokinetic analysis was performed using purpose-written macros for Excel Software. Standard model-independent pharmacokinetic methods were used. Nominal sampling times were used in the calculations. The plasma raloxifene concentrations were used to determine the following parameters: • (i) Cmax Maximum plasma concentration, read directly from the raw data. • (ii) Tmax Time at which Cmax was achieved, also read directly from the raw data. • (iii) ke Terminal elimination rate constant, which was determined as the slope of the regression line of best fit to the approximately log-linear terminal elimination phase (using the least squares linear regression function in the Excel 2003 software). […]

A short description of data set [6]: Dissolution in simulated gastric fluid (USP apparatus). It counts as physicochemical. The following applies: simulated gastric fluid (SGF), 60 mg in 1 L fluid, 90 minutes post addition. Here is the method:
as §1
The dissolution conditions were as follows: 1 L of 0.1 M HCl containing 2 g of NaCl were degassed and brought to 37° C. in a USP conform dissolution vessel to paddle and stirred at about 80 rpm. […] For each time point, 2 mL of sample were removed from the solution, to remove larger aggregates it was centrifuged for 1 min at 10000 g and 1.5 ml was taken from the top of the solution and the concentration was measured using a Waters HPLC running a method validated with respect to specificity, linearity, precision and repeatability.
as §2

The mark [7] stands for this setting: 15 vol % sample in NaCl, washed, stabilized with CTAB.

Consider `O=C(c1ccc(OCCN2CCCCC2)cc1)c1c(-c2ccc(O)cc2)sc2cc(O)ccc12` [Raloxifene HCl (Amorphous), raloxifene hydrochloride], for which the BET surface area in “BET surface area” (hydrochloride) is given as 10.6 m^2/g. In addition, the “particle size (SEM/TEM)” value in data set [1] (hydrochloride) is 100-200 nm.

Take `O=C(O)Cc1ccccc1Nc1c(Cl)cccc1Cl` [DCA, diclofenac acid]: in data set [2], the “particle size by DLS (number weighted)” value is 160±30 nm. In data set [1] (setting [7]), the nanoparticle size entry is on record as “less than 200 nm” and the “size of the majority of nanoparticles” value is given as 30-50 nm. The “nanoparticle diameter (TEM)” value in data set [1] (milled with NH4Cl, washed with 0.01 M HCl and 1 mM CTAB) is “about 200 nm”. Further, the “particle size (SEM/TEM)” value in data set [1] is given as 100-200 nm.

Regarding `O=C(c1ccc(OCCN2CCCCC2)cc1)c1c(-c2ccc(O)cc2)sc2cc(O)ccc12` [Raloxifene Free Base], the “particle diameter calculated from BET surface area” value in the data set “BET surface area” (density of 1.2 g/cm^3) is recorded as 85 nm; in “BET surface area” (density of 1.3 g/cm^3, assuming monodispersed nanoparticles), “about 80 nm”; in “BET surface area” (density of 1.4 g/cm^3), 70 nm. The same compound had a BET surface area in “BET surface area” of 57.7178±0.4095 m^2/g. Also, in data set [1], the “particle size (SEM/TEM)” value is on record as “under 100 nm”.

As to `Cc1cc2c(s1)Nc1ccccc1N=C2N1CCN(C)CC1` [olanzapine], in data set [3], the “appearance after milling (degradation)” value is reported as “some decolourization”.

Turning to `O=C(c1ccc(OCCN2CCCCC2)cc1)c1c(-c2ccc(O)cc2)sc2cc(O)ccc12` [commercial raloxifene hydrochloride, raloxifene hydrochloride], the BET surface area in the data set “BET surface area” (listed as commercial raloxifene HCl, hydrochloride) turned out to be 0.1 m^2/g. For the same compound, the “solution concentration detected (dissolution)” value in data set [4] was around 0.75 mg/L; in data set [6], around 8 mg/L. Also, in data set [5] (mean±SD), the “area under the concentration vs. time curve (AUC0-t)” value came out at 21.36 ± 16.79 ng·h/mL. In addition, the Cmax in data set [5] (both sexes, dog, plasma, mean±SD, read-out: maximum plasma concentration (Cmax)) turned out to be 7.69 ± 4.54 ng/mL. The Tmax in data set [5] (both sexes, dog, plasma, read-out: median time to maximum concentration (Tmax)) was 1.5 h.
